Columns and labels:
[1] = Oxidation potential of dye (vs SCE); assay type: physicochemical; conditions: comparative dyes; method not stated
Procedure: The value of oxidation potential (Eox) can be easily measured by those skilled in the art.
In some detail, for the measurement of oxidation potential, the test specimen is dissolved in a solvent such as dimethyl formamide and acetonitrile containing a supporting electrolyte such as sodium perchlorate and tetrapropylammonium perchlorate in a concentration of from […] to 1×10^−6 mol/l. The solution is then measured for oxidation potential with respect to SCE (saturated calomel electrode) by cyclic voltametry or DC polarography, etc. This value may deviate by a few tens of millivolts when affected by the difference in potential between liquids or the resistivity of sample solution, but the reproducibility of potential can be assured by putting a standard sample (e.g., hydroquinone) in the sample solution.
In order to unequivocally define oxidation potential, in the present invention, the value (vs SCE) measured in dimethyl formamide containing 0.1 mol dm^−3 of tetrapropylammonium perchlorate as a supporting electrolyte (dye concentration: 0.001 mol dm^−3) is defined as oxidation potential of dye.

[2] = Absorption spectrum of dye; assay type: physicochemical; conditions: comparative dyes; ratio as printed
Text: To this end, the dye to be used in the invention preferably is a yellow dye having a λmax at a wavelength range of from 390 nm to 470 nm and a I(λmax+70 nm)/I(λmax) ratio of not greater than 0.2, more preferably not greater than 0.1 in which I(λmax) is the absorbance at λmax and I(λmax+70 nm) is the absorbance at λmax+70 nm. Ideally speaking, the lower limit of the ratio is 0. In actuality, however, the lower limit of the ratio is about 0.01.

Row | Molecule | oxidation potential [1] | I(λmax)/I(λmax+70 nm) ratio [2]
1 | Cc1nn(-c2ccc(S(=O)(=O)[O-])cc2)c(O)c1/N=N/c1cccc(S(=O)(=O)Nc2cc(C(=O)[O-])cc(C(=O)[O-])c2)c1.[K+].[K+].[K+] [Yellow dye (C)] | ≤ 1.0 V (vs SCE) | ≤ 0.4
2 | Direct Yellow 11 [Yellow dye (D)] | ≤ 1.0 V (vs SCE) | greater than 0.4

Reference: US7370953B2, “Inkjet recording ink” (FUJIFILM Corporation, priority 2003, dated 2008)
